Measurements as given in patent publication US20140343000A1 (priority 2011, published 2014).
pEC50: −log10 of the molar value.

The compounds below were run on recombinant NL4-3 virus (Renilla luciferase in nef, Gag P373S; NLRluc) in MT-2 cells (assay: whole plant or invertebrate). Conditions: Renilla, NL43, luciferase activity in cells infected for 4-5 days with NLRluc recombinants, serial dilutions of inhibitor; class symbols (key in Table 1); read-out: EC50.
Format: cell-based, HIV
Procedure, shortened: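 MT-2 cells in RPMI 1640 with 10% heat-inactivated FBS were infected with the reporter virus, made by transfecting the proviral clone into 293T cells, and cultured 4-5 days with serial inhibitor dilutions. Antiviral activity was quantified from Renilla luciferase activity measured in lysed cells.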

Row | Compound | pEC50
1 | C=C(C)[C@@H]1CC[C@]2(NC(=O)NCCCCCN(C)C)CC[C@]3(C)[C@H](CC[C@@H]4[C@@]5(C)CC=C(c6ccc(C(=O)O)cc6)C(C)(C)[C@@H]5CC[C@]43C)[C@@H]12 [Example 60, 4-((1R,3aS,5aR,5bR,7aR,11aS,11bR,13aR,13bR)-3a-(3-(5-(dimethylamino)pentyl)ureido)-5a,5b,8,8,11a-pentamethyl-1-(prop-1-en-2-yl)-2,3,3a,4,5,5a,5b,6,7,7a,8,11,11a,11b,12,13,13a,13b-octadecahydro-1H-cyclopenta[a]chrysen-9-yl)benzoic acid] | > 7.00
2 | C=C(C)[C@@H]1CC[C@]2(NC(=O)N(CCO)CCN3CCS(=O)(=O)CC3)CC[C@]3(C)[C@H](CC[C@@H]4[C@@]5(C)CC=C(c6ccc(C(=O)O)cc6)C(C)(C)[C@@H]5CC[C@]43C)[C@@H]12 [Example 65, 4-((1R,3aS,5aR,5bR,7aR,11aS,11bR,13aR,13bR)-3a-(((2-(1,1-dioxido-4-thiomorpholinyl)ethyl)(2-hydroxyethyl)carbamoyl)amino)-1-isopropenyl-5a,5b,8,8,11a-pentamethyl-2,3,3a,4,5,5a,5b,6,7,7a,8,11,11a,11b,12,13,13a,13b-octadecahydro-1H-cyclopenta[a]chrysen-9-yl)benzoic acid] | > 7.00
3 | C=C(C)[C@@H]1CC[C@]2(NC(=O)N(CCCO)CCN3CCS(=O)(=O)CC3)CC[C@]3(C)[C@H](CC[C@@H]4[C@@]5(C)CC=C(c6ccc(C(=O)O)cc6)C(C)(C)[C@@H]5CC[C@]43C)[C@@H]12 [Example 66, 4-((1R,3aS,5aR,5bR,7aR,11aS,11bR,13aR,13bR)-3a-(((2-(1,1-dioxido-4-thiomorpholinyl)ethyl)(3-hydroxypropyl)carbamoyl)amino)-1-isopropenyl-5a,5b,8,8,11a-pentamethyl-2,3,3a,4,5,5a,5b,6,7,7a,8,11,11a,11b,12,13,13a,13b-octadecahydro-1H-cyclopenta[a]chrysen-9-yl)benzoic acid] | > 7.00
4 | C=C(C)[C@@H]1CC[C@]2(NC(=O)N(CCOC)CCN3CCS(=O)(=O)CC3)CC[C@]3(C)[C@H](CC[C@@H]4[C@@]5(C)CC=C(c6ccc(C(=O)O)cc6)C(C)(C)[C@@H]5CC[C@]43C)[C@@H]12 [Example 67, 4-((1R,3aS,5aR,5bR,7aR,11aS,11bR,13aR,13bR)-3a-(((2-(1,1-dioxido-4-thiomorpholinyl)ethyl)(2-methoxyethyl)carbamoyl)amino)-1-isopropenyl-5a,5b,8,8,11a-pentamethyl-2,3,3a,4,5,5a,5b,6,7,7a,8,11,11a,11b,12,13,13a,13b-octadecahydro-1H-cyclopenta[a]chrysen-9-yl)benzoic acid] | > 7.00
5 | C=C(C)[C@@H]1CC[C@]2(NC(=O)N(CCCOC)CCN3CCS(=O)(=O)CC3)CC[C@]3(C)[C@H](CC[C@@H]4[C@@]5(C)CC=C(c6ccc(C(=O)O)cc6)C(C)(C)[C@@H]5CC[C@]43C)[C@@H]12 [Example 68, 4-((1R,3aS,5aR,5bR,7aR,11aS,11bR,13aR,13bR)-3a-(((2-(1,1-dioxido-4-thiomorpholinyl)ethyl)(3-methoxypropyl)carbamoyl)amino)-1-isopropenyl-5a,5b,8,8,11a-pentamethyl-2,3,3a,4,5,5a,5b,6,7,7a,8,11,11a,11b,12,13,13a,13b-octadecahydro-1H-cyclopenta[a]chrysen-9-yl)benzoic acid] | > 7.00
6 | C=C(C)[C@@H]1CC[C@]2(NC(=O)N(CCN3CCS(=O)(=O)CC3)CCN3CCS(=O)(=O)CC3)CC[C@]3(C)[C@H](CC[C@@H]4[C@@]5(C)CC=C(c6ccc(C(=O)O)cc6)C(C)(C)[C@@H]5CC[C@]43C)[C@@H]12 [Example 69, 4-((1R,3aS,5aR,5bR,7aR,11aS,11bR,13aR,13bR)-3a-((bis(2-(1,1-dioxido-4-thiomorpholinyl)ethyl)carbamoyl)amino)-1-isopropenyl-5a,5b,8,8,11a-pentamethyl-2,3,3a,4,5,5a,5b,6,7,7a,8,11,11a,11b,12,13,13a,13b-octadecahydro-1H-cyclopenta[a]chrysen-9-yl)benzoic acid] | > 7.00
7 | C=C(C)[C@@H]1CC[C@]2(NC(N)=O)CC[C@]3(C)[C@H](CC[C@@H]4[C@@]5(C)CC=C(c6ccc(C(=O)O)cc6)C(C)(C)[C@@H]5CC[C@]43C)[C@@H]12 [Example 69-1, 4-((1R,3aS,5aR,5bR,7aR,11aS,11bR,13aR,13bR)-5a,5b,8,8,11a-pentamethyl-1-(prop-1-en-2-yl)-3a-ureido-2,3,3a,4,5,5a,5b,6,7,7a,8,11,11a,11b,12,13,13a,13b-octadecahydro-1H-cyclopenta[a]chrysen-9-yl)benzoic acid] | > 7.00
8 | C=C(C)[C@@H]1CC[C@]2(NC(=O)OCCCN3CCS(=O)(=O)CC3)CC[C@]3(C)[C@H](CC[C@@H]4[C@@]5(C)CC=C(c6ccc(C(=O)O)cc6)C(C)(C)[C@@H]5CC[C@]43C)[C@@H]12 [Example 70, benzoic acid, 4-[(1R,3aS,5aR,5bR,7aR,11aS,11bR,13aR,13bR)-3a-[[[3-(1,1-dioxido-4-thiomorpholinyl)propoxy]carbonyl]amino]2,3,3a,4,5,5a,5b,6,7,7a,8,11,11a,11b,12,13,13a,13b-octadecahydro-5a,5b,8,8,11a-pentamethyl-1-(1-methylethenyl)-1H-cyclopenta[a]chrysen-9-yl]] | > 7.00
9 | C=C(C)[C@@H]1CC[C@]2(NC(=O)OCCN3CCS(=O)(=O)CC3)CC[C@]3(C)[C@H](CC[C@@H]4[C@@]5(C)CC=C(c6ccc(C(=O)O)cc6)C(C)(C)[C@@H]5CC[C@]43C)[C@@H]12 [Example 71, benzoic acid, 4-[(1R,3aS,5aR,5bR,7aR,11aS,11bR,13aR,13bR)-3a-[[[2-(1,1-dioxido-4-thiomorpholinyl)ethoxy]carbonyl]amino]-2,3,3a,4,5,5a,5b,6,7,7a,8,11,11a,11b,12,13,13a,13b-octadecahydro-5a,5b,8,8,11a-pentamethyl-1-(1-methylethenyl)-1H-cyclopenta[a]chrysen-9-yl]] | > 7.00
10 | C=C(C)[C@@H]1CC[C@]2(NC(=O)OCCCCN3CCS(=O)(=O)CC3)CC[C@]3(C)[C@H](CC[C@@H]4[C@@]5(C)CC=C(c6ccc(C(=O)O)cc6)C(C)(C)[C@@H]5CC[C@]43C)[C@@H]12 [Example 72, benzoic acid, 4-[(1R,3aS,5aR,5bR,7aR,11aS,11bR,13aR,13bR)-3a-[[[4-(1,1-dioxido-4-thiomorpholinyl)butoxy]carbonyl]amino]-2,3,3a,4,5,5a,5b,6,7,7a,8,11,11a,11b,12,13,13a,13b-octadecahydro-5a,5b,8,8,11a-pentamethyl-1-(1-methylethenyl)-1H-cyclopenta[a]chrysen-9-yl]] | > 7.00
11 | C=C(C)[C@@H]1CC[C@]2(NC(=O)CCN(C)C)CC[C@]3(C)[C@H](CC[C@@H]4[C@@]5(C)CC=C(c6ccc(C(=O)O)cc6)C(C)(C)[C@@H]5CC[C@]43C)[C@@H]12 [Example 73, 4-((1R,3aS,5aR,5bR,7aR,11aS,11bR,13aR,13bR)-3a-(3-(dimethylamino)propanamido)-5a,5b,8,8,11a-pentamethyl-1-(prop-1-en-2-yl)-2,3,3a,4,5,5a,5b,6,7,7a,8,11,11a,11b,12,13,13a,13b-octadecahydro-1H-cyclopenta[a]chrysen-9-yl)benzoic acid] | > 7.00
12 | C=C(C)[C@@H]1CC[C@]2(NC(=O)CCCN(C)C)CC[C@]3(C)[C@H](CC[C@@H]4[C@@]5(C)CC=C(c6ccc(C(=O)O)cc6)C(C)(C)[C@@H]5CC[C@]43C)[C@@H]12 [Example 74, 4-((1R,3aS,5aR,5bR,7aR,11aS,11bR,13aR,13bR)-3a-(4-(dimethylamino)butanamido)-5a,5b,8,8,11a-pentamethyl-1-(prop-1-en-2-yl)-2,3,3a,4,5,5a,5b,6,7,7a,8,11,11a,11b,12,13,13a,13b-octadecahydro-1H-cyclopenta[a]chrysen-9-yl)benzoic acid] | > 7.00
13 | C=C(C)[C@@H]1CC[C@]2(NC(=O)CCc3nccn3C)CC[C@]3(C)[C@H](CC[C@@H]4[C@@]5(C)CC=C(c6ccc(C(=O)O)cc6)C(C)(C)[C@@H]5CC[C@]43C)[C@@H]12 [Example 75, 4-((1R,3aS,5aR,5bR,7aR,11aS,11bR,13aR,13bR)-5a,5b,8,8,11a-pentamethyl-3a-(3-(1-methyl-1H-imidazol-2-yl)propanamido)-1-(prop-1-en-2-yl)-2,3,3a,4,5,5a,5b,6,7,7a,8,11,11a,11b,12,13,13a,13b-octadecahydro-1H-cyclopenta[a]chrysen-9-yl)benzoic acid] | > 7.00
14 | C=C(C)[C@@H]1CC[C@]2(NC(=O)C(=O)N(C)C)CC[C@]3(C)[C@H](CC[C@@H]4[C@@]5(C)CC=C(c6ccc(C(=O)O)cc6)C(C)(C)[C@@H]5CC[C@]43C)[C@@H]12 [Example 76, 4-((1R,3aS,5aR,5bR,7aR,11aS,11bR,13aR,13bR)-3a-(2-(dimethylamino)-2-oxoacetamido)-5a,5b,8,8,11a-pentamethyl-1-(prop-1-en-2-yl)-2,3,3a,4,5,5a,5b,6,7,7a,8,11,11a,11b,12,13,13a,13b-octadecahydro-1H-cyclopenta[a]chrysen-9-yl)benzoic acid] | > 7.00
15 | C=C(C)[C@@H]1CC[C@]2(NC(=O)Cc3nnn[nH]3)CC[C@]3(C)[C@H](CC[C@@H]4[C@@]5(C)CC=C(c6ccc(C(=O)O)cc6)C(C)(C)[C@@H]5CC[C@]43C)[C@@H]12 [Example 77, 4-((1R,3aS,5aR,5bR,7aR,11aS,11bR,13aR,13bR)-3a-(2-(1H-tetrazol-5-yl)acetamido)-5a,5b,8,8,11a-pentamethyl-1-(prop-1-en-2-yl)-2,3,3a,4,5,5a,5b,6,7,7a,8,11,11a,11b,12,13,13a,13b-octadecahydro-1H-cyclopenta[a]chrysen-9-yl)benzoic acid] | > 7.00
